Literature values in paper PMC9177108 (The Oncologist, 2022).

Assays:
patients with RM-NPC = settings: 37 recruited patients with RM-NPC; cited from earlier work
NPC patients = settings: 58 NPC patients, cited from earlier work
[1] = system: relapsed and refractory patients with NPC; settings: cited from earlier work
patients with NPC = settings: 33 patients with NPC; cited from earlier work
[2] = system: patients with advanced NPC; settings: first-line regimen; cited from earlier work

In the case of CNC(=O)c1ccccc1Sc1ccc2c(/C=C/c3ccccn3)n[nH]c2c1 [Axitinib], the DCR (patients with RM-NPC) is listed as 78.4, the ORR (patients with RM-NPC) is listed as 19% and the “median PFS” value (patients with RM-NPC) is listed as 5 months. The “overall survival (OS)” value (patients with RM-NPC) was 10 months.
In the case of CCN(CC)CCN1CCc2[nH]c(/C=C3\C(=O)Nc4ccc(F)cc43)c(C)c2C1=O [Famitinib], the ORR (NPC patients) is given as 6.9%, the “median PFS” value (NPC patients) is given as 3.2 months and the DCR (NPC patients; at 3 months) is given as 32.8%.
In the case of N#CC1(c2ccc(NC(=O)c3cccnc3NCc3ccncc3)cc2)CCCC1 [apatinib], the ORR ([1]; 51 patients (16/51), no response to first- or second-line chemotherapy) is given as 31.4%, the OS ([1]; 51 patients) is given as 16 months and the “median PFS” value ([1]; 51 patients) is given as 9 months.
In the case of Cc1ccc(Nc2nccc(N(C)c3ccc4c(C)n(C)nc4c3)n2)cc1S(N)(=O)=O [pazopanib], the ORR (patients with NPC) is given as 6.1%.
For cisplatin and 5-fluorouracil, the “median PFS” value [2] is listed as 11-14 months and the response rate [2] is listed as 66-78%.
